Assay results from US7259266B2, “Benzopyran compounds useful for treating inflammatory conditions” (Pharmacia Corporation, priority 2003, dated 2007).
pIC50: −log10 of the molar value. “And” between values parts separate entries of the source, which are not always exact repeats. Identical values can stand only once.

Tests used:
COX-2 [1] = target: T1, COX-2 (Homo sapiens, UniProt P35354); assay: Modified assay for COX-2 activity (PGE2 formed, ELISA); assay type: biochemical, human or murine; details: human COX-2, replicate tests on separate lines, read-out: hCox-2 Modified IC50
T1 construct: A 2.0 kb fragment containing the coding region of either human or murine COX-1 or human or murine COX-2; made in house; host or cells: SF9 insect cells (baculovirus, pVL1393)
T1 sequence (P35354 18-604): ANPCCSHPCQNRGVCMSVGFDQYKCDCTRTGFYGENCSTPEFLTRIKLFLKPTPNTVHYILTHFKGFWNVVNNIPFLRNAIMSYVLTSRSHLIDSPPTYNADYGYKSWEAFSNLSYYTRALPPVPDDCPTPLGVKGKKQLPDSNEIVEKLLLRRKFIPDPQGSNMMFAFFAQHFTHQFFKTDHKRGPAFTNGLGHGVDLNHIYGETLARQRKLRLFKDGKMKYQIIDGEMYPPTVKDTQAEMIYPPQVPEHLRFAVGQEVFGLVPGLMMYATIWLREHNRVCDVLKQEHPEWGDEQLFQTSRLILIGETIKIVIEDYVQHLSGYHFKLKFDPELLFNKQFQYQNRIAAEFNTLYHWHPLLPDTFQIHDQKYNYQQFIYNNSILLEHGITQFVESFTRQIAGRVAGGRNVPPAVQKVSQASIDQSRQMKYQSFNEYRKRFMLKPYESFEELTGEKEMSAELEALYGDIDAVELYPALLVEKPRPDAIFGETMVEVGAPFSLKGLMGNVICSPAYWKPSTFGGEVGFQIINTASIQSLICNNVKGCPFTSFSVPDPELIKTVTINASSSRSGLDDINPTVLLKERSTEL

COX-2 [2] = target: T1, COX-2; assay: Assay for COX-2 activity (PGE2 formed, ELISA); assay type: biochemical, human or murine; details: human COX-2, standard assay, read-out: hCox-2 IC50
Description: The COX-2 inhibition activity of the compounds of this invention illustrated in the Examples were determined by the following methods.
A 2.0 kb fragment containing the coding region of either human or murine COX-1 or human or murine COX-2 was cloned into a BamHl site of the baculovirus transfer vector pVL1393 (Invitrogen) to generate the baculovirus transfer vectors for COX-1 and COX-2 in a manner similar to the method of D.R. O'Reilly et al (Baculovirus Expression Vectors: A Laboratory Manual (1992)). Recombinant baculoviruses were isolated by transfecting 4 μg of baculovirus transfer vector DNA into SF9 insect cells (2×10^8) along with 200 ng of linearized baculovirus plasmid DNA by the calcium phosphate method. […] Recombinant viruses were purified by three rounds of plaque purification and high titer (10^7-10^8 pfu/mL) stocks of virus were prepared. For large scale production, SF9 insect cells were infected in 10 liter fermentors (0.5×10^6/mL) with the recombinant baculovirus stock such that the multiplicity of infection was 0.1. After 72 hours the cells were centrifuged and the cell pellet homogenized in Tris/Sucrose (50 mM: 25%, pH 8.0) containing 1% 3-[(3-cholamidopropyl)dimethylammonio]-1-propanesulfonate (CHAPS). The homogenate was centrifuged at 10,000×G for 30 minutes, and the resultant supernatant was stored at −80° C. before being assayed for COX activity.
COX activity was assayed as PGE2 formed/lg protein/time using an ELISA to detect the prostaglandin released. CHAPS-solubilized insect cell membranes containing the appropriate COX enzyme were incubated in a potassium phosphate buffer (50 mM, pH 8.0) containing epinephrine, phenol, and heme with the addition of arachidonic acid (10 μM). Compounds were pre-incubated with the enzyme for 10-20 minutes prior to the addition of arachidonic acid. […] The PGE2 formed was measured by standard ELISA technology (Cayman Chemical).

Row | Structure (SMILES) | pIC50 (COX-2 [1]) | pIC50 (COX-2 [2]; replicate tests on separate lines) | pIC50 (COX-2 [2])
1 | O=C(O)C1=Cc2cc(Cl)c(Oc3ccc4c(c3)OCO4)cc2O[C@H]1C(F)(F)F (single isomer, unassigned) [Example 958a] | 7.53 and ≥ 6.86 | 7.45 and ≥ 6.86 | –
2 | CCCOc1c(Cl)cc(Cl)c2c1OC(C(F)(F)F)C(C(=O)O)=C2 (stereo not shown) [Example 23f, 5,7-dichloro-8-propoxy-2-(trifluoromethyl)-2H-chromene-3-carboxylic acid] | – | – | < 3.30
3 | Nc1c(Cl)cc(Oc2cccc3c2OC(C(F)(F)F)C(C(=O)O)=C3)c(F)c1Cl (stereo not shown) [Example 25d, 8-(4-amino-3,5-dichloro-2-fuorophenoxy)-2-(trifluoromethyl)-2H-chromene-3-carboxylic acid] | – | – | < 4.48
